US20240043435A1, “TYK-2 INHIBITOR” (BEIGENE, LTD., priority 2020, published 2024)

Columns and labels:
[1] = system: JAK2, TYK2/p-STAT4 (Tyr693) activated by IL-12 in NK-92 cell line; test: IL-12-JAK2, TYK2/p-STAT4 (Tyr693) inhibition IC50 cellular assay; type: cell-based; details: NK92, Cellular assay; read-out: pSTAT4/IL-12 IC50
Outline: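 NK-92 cells were starved overnight without IL-2 and preincubated 1 h at 37° C with compound (8 doses, 10000–0.61 nM, 4-fold, 0.2% DMSO). They were then stimulated with IL-12 (40 ng/ml final) for 30 min. Lysate p-STAT4 (Tyr693) was read by AlphaLISA SureFire; IC50 from four-parameter logistic fit.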

[2] = system: pSTAT5/GM-CSF; test: pSTAT5/GM-CSF cellular assay (JAK2 selectivity); type: cell-based; details: for Selectivity fold (TYK2/JAK2): pSTAT5/GM-CSF IC50 over pSTAT4/IL-12 IC50
[3] = target: T1, TYK2-JH2 (aa 575-869, in-house) protein (Homo sapiens, UniProt P29597); test: TYK2-JH2 biochemical assay (HTRF probe displacement); type: binding; details: Biochemical assay; read-out: TYK2-JH2 IC50
T1 construct: TYK2-JH2 (aa 575-869, in-house) protein; made in house
T1 sequence (P29597 575-869): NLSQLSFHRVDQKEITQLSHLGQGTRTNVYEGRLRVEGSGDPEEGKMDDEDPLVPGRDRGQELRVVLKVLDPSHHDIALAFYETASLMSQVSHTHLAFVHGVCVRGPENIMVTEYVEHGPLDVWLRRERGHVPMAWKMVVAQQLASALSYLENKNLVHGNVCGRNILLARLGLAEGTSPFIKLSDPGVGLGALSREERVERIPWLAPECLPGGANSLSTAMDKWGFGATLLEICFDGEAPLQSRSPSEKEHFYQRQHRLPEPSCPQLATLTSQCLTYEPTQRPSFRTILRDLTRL
Outline: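 Recombinant TYK2-JH2 (0.2 nM) was pre-incubated 0.5 h at room temperature with compounds (10 doses, 5-fold dilution; 500× DMSO stocks from 500 uM) in 20 mM HEPES pH 7.5, 10 mM MgCl2, 0.005% BSA, 2 mM DTT, 0.015% Brij-35. Probe displacement was read by HTRF (ex337, em620/665 nm); IC50 from four-parameter logistic fit.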

Row | IC50 [1] | IC50 [2] | IC50 [3] | Structure (SMILES) | Selectivity fold (TYK2/JAK2) [2]
1 | 8.13 nM | > 10000 nM | 0.036 nM | COCCOc1cc(Nc2cc(NC(C)=O)ncc2-c2ccn(C)n2)cc(S(C)(=O)=O)c1 [Example J35, N-(4-((3-(2-methoxyethoxy)-5-(methylsulfonyl)phenyl)amino)-5-(1-methyl-1H-pyrazol-3-yl)pyridin-2-yl)acetamide] | >1230 fold
2 | 5.05 nM | > 10000 nM | 0.043 nM | CC(=O)Nc1cc(Nc2cc(OC3CC3)cc(S(C)(=O)=O)c2)c(-c2ccn(C)n2)cn1 [Example J36, N-(4-((3-cyclopropoxy-5-(methylsulfonyl)phenyl)amino)-5-(1-methyl-1H-pyrazol-3-yl)pyridin-2-yl)acetamide] | >1980 fold
3 | 1.98 nM | > 10000 nM | 0.024 nM | CC(=O)Nc1cc(Nc2cc(-c3ccccc3)cc(S(C)(=O)=O)n2)c(-c2ccn(C)n2)cn1 [Example J38, N-(5-(1-methyl-1H-pyrazol-3-yl)-4-((6-(methylsulfonyl)-4-phenylpyridin-2-yl)amino)pyridin-2-yl)acetamide] | >5050 fold
4 | 10.7 nM | > 10000 nM | 0.036 nM | CC(=O)Nc1cc(Nc2cc(Oc3ccccc3)cc(S(C)(=O)=O)n2)c(-c2ccn(C)n2)cn1 [Example J39, N-(5-(1-methyl-1H-pyrazol-3-yl)-4-((6-(methylsulfonyl)-4-phenoxypyridin-2-yl)amino)pyridin-2-yl)acetamide] | >935 fold
5 | 0.326 nM | > 10000 nM | 0.029 nM | CC(=O)Nc1cc(Nc2cc(Cl)cc(S(C)(=O)=O)n2)c(-c2ccn(C)n2)cn1 [Example J40, N-(4-((4-chloro-6-(methylsulfonyl)pyridin-2-yl)amino)-5-(1-methyl-1H-pyrazol-3-yl)pyridin-2-yl)acetamide] | >30674 fold
6 | 2.98 nM | > 10000 nM | 0.027 nM | COC(C)c1cc(Nc2cc(NC(C)=O)ncc2-c2ccn(C)n2)nc(S(C)(=O)=O)c1 (stereo not shown) [Example J41, N-(4-((4-(1-methoxyethyl)-6-(methylsulfonyl)pyridin-2-yl)amino)-5-(1-methyl-1H-pyrazol-3-yl)pyridin-2-yl)acetamide] | >3355 fold
7 | 0.796 nM | > 10000 nM | 0.05 nM | CC(=O)Nc1cc(Nc2cc(C(F)F)cc(S(C)(=O)=O)n2)c(-c2ccn(C)n2)cn1 [Example J42, N-(4-((4-(difluoromethyl)-6-(methylsulfonyl)pyridin-2-yl)amino)-5-(1-methyl-1H-pyrazol-3-yl)pyridin-2-yl)acetamide] | >12562 fold
8 | 0.744 nM | > 10000 nM | 0.025 nM | CCOc1cc(Nc2cc(NC(C)=O)ncc2-c2ccn(C)n2)nc(S(C)(=O)=O)c1 [Example J43, N-(4-((4-ethoxy-6-(methylsulfonyl)pyridin-2-yl)amino)-5-(1-methyl-1H-pyrazol-3-yl)pyridin-2-yl)acetamide] | >13440 fold

The next lines start with the compound.

Row | Structure (SMILES) | IC50 [1] | IC50 [2] | IC50 [3] | Selectivity fold (TYK2/JAK2) [2]
9 | CC(=O)Nc1cc(Nc2cc(OCC(C)O)cc(S(C)(=O)=O)n2)c(-c2ccn(C)n2)cn1 (stereo not shown) [Example J24, N-(4-((4-(2-hydroxypropoxy)-6-(methylsulfonyl)pyridin-2-yl)amino)-5-(1-methyl-1H-pyrazol-3-yl)pyridin-2-yl)acetamide] | 6.05 nM | > 10000 nM | 0.028 nM | >1652 fold
10 | CC(=O)Nc1cc(Nc2cc(OCC3COC3)cc(S(C)(=O)=O)n2)c(-c2ccn(C)n2)cn1 [Example J25, N-(5-(1-methyl-1H-pyrazol-3-yl)-4-((6-(methylsulfonyl)-4-(oxetan-3-ylmethoxy)pyridin-2-yl)amino)pyridin-2-yl)acetamide] | 2.91 nM | > 10000 nM | 0.025 nM | >3436 fold
11 | CC(=O)Nc1cc(Nc2cc(C#N)cc(S(C)(=O)=O)n2)c(-c2ccn(C)n2)cn1 [Example J26, N-(4-((4-cyano-6-(methylsulfonyl)pyridin-2-yl)amino)-5-(1-methyl-1H-pyrazol-3-yl)pyridin-2-yl)acetamide] | 5.5 nM | > 10000 nM | 0.023 nM | >1818 fold
12 | CC(=O)Nc1cc(Nc2nc(S(C)(=O)=O)ccc2C)c(-c2ccn(C)n2)cn1 [Example J27, N-(5-(1-methyl-1H-pyrazol-3-yl)-4-((3-methyl-6-(methylsulfonyl)pyridin-2-yl)amino)pyridin-2-yl)acetamide] | 0.439 nM | > 10000 nM | 0.04 nM | >22779 fold
13 | CC(=O)Nc1cc(Nc2cccc(S(=O)(=O)C3CC3)n2)c(-c2ccn(C)n2)cn1 [Example J28, N-(4-((6-(cyclopropylsulfonyl)py-ridin-2-yl)amino)-5-(1-methyl-1H-pyrazol-3-yl)pyridin-2-yl)acetamide] | 3.14 nM | > 10000 nM | 0.053 nM | >3184 fold
14 | CC(=O)Nc1cc(Nc2cccc(S(=O)(=O)C(C)C)n2)c(-c2ccn(C)n2)cn1 [Example J29, N-(4-((6-(isopropylsulfonyl)pyri-din-2-yl)amino)-5-(1-methyl-1H-pyrazol-3-yl)pyridin-2-yl)acetamide] | 12.4 nM | > 10000 nM | 0.045 nM | >805 fold
15 | CC(=O)Nc1cc(Nc2cc(F)cc(S(C)(=O)=O)c2)c(-c2ccn(C)n2)cn1 [Example J30, N-(4-((3-fluoro-5-(methylsulfonyl)phenyl)amino)-5-(1-methyl-1H-pyrazol-3-yl)pyridin-2-yl)acetamide] | 4.82 nM | > 10000 nM | 0.054 nM | >2074 fold
16 | CC(=O)Nc1cc(Nc2cc(Cl)cc(S(C)(=O)=O)c2)c(-c2ccn(C)n2)cn1 [Example J31, N-(4-((3-chloro-5-(methylsulfonyl)phenyl)amino)-5-(1-methyl-1H-pyrazol-3-yl)pyridin-2-yl)acetamide] | 15 nM | > 10000 nM | 0.076 nM | >668 fold
17 | CC(=O)Nc1cc(Nc2cc(C(F)F)cc(S(C)(=O)=O)c2)c(-c2ccn(C)n2)cn1 [Example J32, N-(4-((3-(difluoromethyl)-5-(methylsulfonyl)phenyl)amino)-5-(1-methyl-1H-pyrazol-3-yl)pyridin-2-yl)acetamide] | 8.79 nM | > 10000 nM | 0.079 nM | >1137 fold
18 | COCc1cc(Nc2cc(NC(C)=O)ncc2-c2ccn(C)n2)cc(S(C)(=O)=O)c1 [Example J34, N-(4-((3-(methoxymethyl)-5-(methylsulfonyl)phenyl)amino)-5-(1-methyl-1H-pyrazol-3-yl)pyridin-2-yl)acetamide] | 9.69 nM | > 10000 nM | 0.067 nM | >1031 fold
19 | CC(=O)Nc1cc(Nc2cc(O[C@H]3C[C@H](O)C3)cc(S(C)(=O)=O)c2)c(-c2ccn(C)n2)cn1 [Example J37, N-(4-((3-((trans)-3-hydroxycyclobutoxy)-5-(methylsulfonyl)phenyl)amino)-5-(1-methyl-1H-pyrazol-3-yl)pyridin-2-yl)acetamide] | 19.1 nM | > 10000 nM | 0.035 nM | >523 fold
